Laboratory results taken from patent publication US4544556A, “Xanthine derivatives, pharmaceutical compositions containing same and their therapeutic use” (Malesci S.p.A. Istituto Farmacologico, priority 1982, dated 1985).
Like-named read-outs stand apart in the source and are kept apart here.

What was measured:
rats = experiment: Activity on CNS: reaction to subtoxic dose of cardiazole, rats; assay type: in vivo; details: cardiazole i.p. 60-70 mg/Kg
Acute toxicity = details: mouse, in vivo, male Swiss mouses about 20 g, empty since 16 hours, read-out: DL50 (the source's name)
Procedure: The compound has been administered either per os or by intravenous injection to male Swiss mouses having a weight of about 20 g, empty since 16 hours.

brain P.D.E. = experiment: Antiphosphodiesterase activity, brain P.D.E.; assay type: biochemical, Wistar rats; details: rat brain, relative to theophylline
Excerpt: (§1) The preparation of the enzyme from heart, lungs and brain of Wistar rats and the activity test of P.D.E. have been carried out according to the R. W. BUTCHER and E. W. […] (J. Biol. Chem. 237, 1244; 1962).

heart P.D.E. = experiment: Antiphosphodiesterase activity, heart P.D.E.; assay type: biochemical, Wistar rats; details: rat heart, relative to theophylline
Excerpt: as §1

mouses = experiment: Activity on CNS: reaction to subtoxic dose of cardiazole, mouses; assay type: in vivo; details: cardiazole i.p. 60-70 mg/Kg
lung P.D.E. = experiment: Antiphosphodiesterase activity, lung P.D.E.; assay type: biochemical, Wistar rats; details: rat lungs, relative to theophylline
Excerpt: as §1

[1] = test system: acetylcholine induced bronchospasm; experiment: Antibronchospastic activity (acetylcholine induced bronchospasm, Konzett-Rossler method); assay type: in vivo, guinea pigs; details: Cavia porcellus, im, read-out: ED50 (50% reduction of acetylcholine induced bronchospasm)
Excerpt: The test has been carried out in anaesthesized adult guinea pigs under artificial respiration.

guinea pigs = experiment: Activity on CNS: reaction to subtoxic dose of cardiazole, guinea pigs; assay type: in vivo; details: cardiazole i.p. 60-70 mg/Kg
[2] = 0.5 h, 30' after intramuscular administration
[3] = 1 h, 60' after intramuscular administration
[4] = 1.5 h, 90' after intramuscular administration

Compound | % dead animals (rats; 50 mg/kg S.C. (20')) | % dead animals (rats; 100 mg/kg S.C. (20')) | LD50 (Acute toxicity; po, per os) | LD50 (Acute toxicity; intravenous injection) | activity against brain P.D.E. in comparison with theophylline (brain P.D.E.) | activity against heart P.D.E. in comparison with theophylline (heart P.D.E.) | % dead animals (mouses; 25 mg/kg S.C. (20')) | % dead animals (mouses; 50 mg/kg S.C. (20')) | % dead animals (mouses; 100 mg/kg S.C. (20')) | activity against lung P.D.E. in comparison with theophylline (lung P.D.E.) | ED50 [1, 2] | ED50 [1, 3] | ED50 [1, 4] | % dead animals (guinea pigs; 50 mg/kg S.C. (20')) | % dead animals (guinea pigs; 100 mg/kg S.C. (20'))
CC(C)Cn1cnc2c1c(=O)n(C)c(=O)n2C [7-isobutyl theophylline, 1,3-dimethyl-7-isobutyl-xanthine] | 0% | 0% | 199 mg/kg | 129 mg/kg | twice more active | four times more active | 0% | 0% | 0% | four times more active | 120 µmol/kg | 140 µmol/kg | 160 µmol/kg | 0% | 0%
Cn1c(=O)c2[nH]cnc2n(C)c1=O [Theophylline, theophylline, reference compound] |  |  |  |  |  |  |  |  |  |  | 270 µmol/kg | 230 µmol/kg | 200 µmol/kg |  | 
